Laboratory results reported in patent publication US8093273B2, “Flavanoids and isoflavanoids for the prevention and treatment of cardiovascular diseases” (Resverlogix Corp., priority 2004, dated 2012).
In brackets after ≈: the same amount, converted by molar mass.

Key:
human ApoA-I promoter [1] = test: ApoA-I promoter induction in HepG2 liver cells (pAI.474-Luc luciferase reporter); format: cell-based; settings: average values at 15 μM, 48 hours incubation
Protocol: This study determined whether compounds of the invention have an effect on ApoA-I promoter activity expression in HepG2 cells, a liver cell line. Cells were grown under conditions recommended by the ATCC and summarized by Wong.
The promoter region of the gene encoding human ApoA-I was isolated and ligated upstream the structure gene of firefly luciferase to construct a reporter plasmid (pAI.474-Luc). The reporter plasmid, along with pRSV-β-galactosidase (as a control for transfection efficiency), were co-transfected into HepG2 cells. The cells were then incubated in an MEM selection media containing 20% fetal calf serum supplemented with G418 (final concentration: 0.5 mg/mL, Gibco) to give established strains that stably express from the reporter gene. The strains were seeded to a 6-well culture plates and incubated for 48 hours at 37° C. under 5% carbon dioxide. Cells were starved for 24 hrs in MEM selection media containing 0.5% FBS. Then, a solution of the compounds of the invention in DMSO (or other appropriate solvent) was added to the wells at a final concentration of 0 to 100 μM in MEM selection media containing 0.5% FBS.
(§1) After further incubation for 48 hours, the cells were harvested and lysed using Reporter Lysis Buffer (PROMEGA E3971), and 50 μL of luciferase assay reagent (PROMEGA E4550 Luciferase Reporter 1000 assay system) were added to measure luciferase activity with a luminometer (Fluoroskan Ascent FL from Thermo electron Corporation). Luciferase activity was normalized to lysate protein concentrations, measured using Bradford Reagent (Biorad Protein Assay reagent Cat #500-0006).

human ApoA-I promoter [2] = test: ApoA-I promoter induction in Caco-2 intestinal cells (pAI.474-Luc luciferase reporter); format: cell-based; settings: Caco-2 cells, 15 μM, 48 hours incubation, luciferase activity vs control samples
Protocol: To examine the effects of compounds of the invention to increase ApoA-I expression, Caco-2 cells, an intestinal cell line derived from human epithelial intestinal cells, were grown under conditions recommended by the ATCC and summarized in United States Patent Application Publication No. 20040033480 (“Wong”), incorporated herein by reference.
Briefly, the promoter region of the gene encoding human ApoA-I was isolated and ligated upstream of the firefly luciferase gene to construct the reporter plasmid pAI.474-Luc. This reporter plasmid and pRSV-β-galactosidase (as a control for transfection efficiency) were co-transfected to Caco-2 cells. The Caco-2 cells were then incubated in a MEM selection media containing 20% fetal calf serum supplemented with G418 (final concentration: 0.5 mg/mL, Gibco) to give established strains that stably express from the reporter gene. The strains were seeded in 6-well culture plates and incubated for 48 hours at 37° C. under 5% carbon dioxide. Cells were starved for 24 hrs in MEM selection media containing 0.5% FBS. Then, a solution of a compound of the invention in DMSO or other appropriate solvent was added to the wells at a final concentration of 0 to 100 μM in MEM selection media containing 0.5% FBS.
as §1, with “system) was” for “system) were”, “Reagent (BioRad” for “Reagent (Biorad”, “#500-0006). The luciferase activity of cells treated with various concentrations of test compounds was compared to that of solvent control sample (i.e., solvent without any compound of the present invention added) and untreated control sample.” for “#500-0006).”

Caco-2 permeability = format: in vitro ADME, human; settings: human, Caco-2
Source text: The Caco-2 cell drug transport model is widely used for screening compounds in drug discovery to assess intestinal transport and predict absorption rates.

[3] = Solubility analysis in PBS (HPLC-UV); format: physicochemical; settings: aqueous buffer, thermodynamic from solid; 1 mg in 1 mL PBS, sonicated 1 hour, 25° C. for 3 hrs
Protocol: Samples were then centrifuged at 14,000 rpm for 6 minutes at room temperature. The supernatant was diluted with acetonitrile and was removed for analysis. Analysis was performed using HPLC-UV with 7-point standard curve to determine the concentration. The average concentration calculated is regarded as the solubility (μM).

hApoA-I transgenic mice = test: hApoA-I transgenic mice, oral gavage for 14 days; format: in vivo; settings: Experiment A
Source text: To test whether the efficacy of compounds of the invention observed in vitro extended to an in vivo model, transgenic mice carrying multiple copies of the human ApoA-I gene (C57BI/6-tgn(apoa1)1 rub, Jackson Laboratory, Bar Harbor, Me.) were exposed to representative compounds of the invention. The exogenous human ApoA-I gene in these mice enables them to express the human ApoA-I protein under the control of this promoter.
Seven to eight week old male mice, transgenic for human ApoA-I were housed five per cage (10″×20″×8″ with aspen chip bedding) with pelleted Rodent chow [Purina 5001] and water available at all times. After an acclimation period of 1 week, animals were individually identified by numbering on tail and weighed. Mice were pre bled via the retro-orbital plexus, and 150 μl of blood was collected in 1.5 ml Eppendorf tube containing 1 μl of heparin and chilled on ice. Plasma was collected after centrifuging the whole blood at 14000 rpm [TOMY high speed micro-refrigerated centrifuge NTX-150] for 10 minutes at 4° C. and frozen at −80° C. Plasma was analyzed for: human ApoA-I by a human ApoA-I enzyme-linked Immunoassay [Direct Sandwich ELISA Calbiochem Cat#178422, Calbiochem Cat#178452, lot #B9076, Calbiochem Cat #178470 conjugated to Horse Radish Peroxidase (Cedarlane Cat#80220)]; total cholesterol [Ponte scientific reagents: # C7509-STD, #L7580-18, # C7510]; and triglyceride [Pointe Scientific Reagents: # 7532-STD, # L7580-18, #7532]. All samples were measured in triplicates and expressed as mg/dl. Mice were grouped based on the above plasma parameters and having an average body weight of 25 gm.
Two days following pre-bleed, mice were dosed by oral gavage daily for 14 days using a 20 gauge, 11/2″ curved disposable feeding needle [Popper & Sons]; when BID, mice were gavaged morning and afternoon (8 am and 5 pm); when SID mice were gavaged in morning (8 am). Compounds were prepared each day in vehicle. Test article(s), a positive control fenofibrate, and vehicle were dosed at volume of 5 mL/kg of body weight as a suspension (0.1 mL/20 g mouse). Fenofibrate was obtained commercially [SIGMA #F 6020]. Mice weights were recorded on day 1, 4, 7, 10, 12, and 15. On day 15, mice were weighed and fasted for 4 hours, sacrificed by inhalation of CO2 and blood was obtained via cardiac puncture (0.7-1.0 ml). Plasma was collected and frozen at −80° C. Samples were assayed for ApoA-I, total cholesterol, triglyceride and HDL-C by HPLC [Polaris 200 with an auto sampler Prostar 410 from Varian on a Superose 6 10/30 column from Amersham]. Samples were sent for NMR analysis [LipoScience] to identify particle size and subclass for lipoproteins. During necropsy, liver, brown fat, and the whole of small and large intestines were collected, cleaned with cold PBS and frozen at −80° C. for further analysis of compound levels. Variation between studies, in ApoA-I changes, was observed. Therefore, a relative comparison between individual(s) in the study groups was used.
4′-hydroxyflavone (10 mg/kg of body weight), 4-(4-oxo-4H-chromen-2-yl)phenyl nicotinate (Example 71) (10 mg/kg of body weight) and fenofibrate (100 mg/kg of body weight) were BID administered to hApoA-I transgenic mice daily for fourteen days by oral gavage in 0.5% Methylcellulose (w/v)/1% Tween 80 (w/v). Plasma was assayed for ApoA-I (FIG. 3A), HDL cholesterol and total cholesterol (FIG. 3B) and percent weight gain (FIG. 3C).
4′-hydroxyflavone (3 mg/kg of body weight), 4′-hydroxyflavone (10 mg/kg of body weight), 4′-hydroxyflavone (30 mg/kg of body weight), 2-(4-Hydroxy-phenyl)-pyrano[2,3-b]pyridin-4-one (10 mg/kg of body weight), and fenofibrate (100 mg/kg of body weight) were BID administered to hApoA-I transgenic mice daily for fourteen days by oral gavage in 0.5% methylcellulose (w/v)/1% Tween 80 (w/v). In this experiment plasma was assayed for ApoA-I. […]

Papp (Caco-2 permeability) | melting point | solubility at 3 h [3] | SMILES | ApoA-I Promoter Induction (human ApoA-I promoter [1]) | ApoA-I Promoter Induction (human ApoA-I promoter [2]) | plasma ApoA-I, net % change over vehicle (hApoA-I transgenic mice; 10 mg/kg BID oral gavage, 14 days, 0.5% methylcellulose/1% Tween 80) | liver weight gain normalized to body weight, compared to vehicle (hApoA-I transgenic mice; 10 mg/kg BID, day 15, male mice)
 | 275 to 276 °C |  | O=c1cc(-c2ccc(O)c(F)c2)oc2ccccc12 [Example 12, 2-(3-Fluoro-4-hydroxyphenyl)chromen-4-one] | increased |  |  | 
 | 256 to 258 °C | 51.4 µM (≈ 14.7 µg/mL) | O=c1cc(-c2ccc(O)c(F)c2)oc2ccc(CO)cc12 [Example 33, 2-(3-fluoro-4-hydroxyphenyl)-6-(hydroxymethyl)-4H-chromen-4-one] |  | increased |  | 
1.76 ×10⁻⁶ cm/s | 259 to 262 °C | 84.4 µM (≈ 23.1 µg/mL) | O=c1cc(-c2ccc(O)c(Cl)c2)oc2ncccc12 [Example 41, 2-(3-chloro-4-hydroxyphenyl)-4H-pyrano[2,3-b]pyridine-4-one] |  | increased |  | 
 | 253 to 255 °C | 47.1 µM (≈ 12.7 µg/mL) | COc1cc(-c2cc(=O)c3cccnc3o2)ccc1O [Example 43, 2-(4-hydroxy-3-methoxyphenyl)-4H-pyrano[2,3-b]pyridine-4-one] |  | increased |  | 
 | 157 to 159 °C | 334 µM (≈ 94.6 µg/mL) | O=c1cc(-c2ccc(OCCO)cc2)oc2ncccc12 [Example 45, 2-(4-(2-hydroxyethoxy)phenyl)-4H-pyrano[2,3-b]pyridine-4-one] |  | increased |  | 
 | 226 to 227 °C | 48.5 µM (≈ 13.1 µg/mL) | O=c1cc(-c2ccc(O)c(CO)c2)oc2ncccc12 [Example 81, 2-(4-hydroxy-3-(hydroxymethyl)phenyl)-4H-pyrano[2,3-b]pyridin-4-one] |  | increased |  | 

Second part, the compound before the results:

SMILES | Papp (Caco-2 permeability) | melting point | solubility at 3 h [3] | ApoA-I Promoter Induction (human ApoA-I promoter [1]) | ApoA-I Promoter Induction (human ApoA-I promoter [2]) | plasma ApoA-I, net % change over vehicle (hApoA-I transgenic mice; 10 mg/kg BID oral gavage, 14 days, 0.5% methylcellulose/1% Tween 80) | liver weight gain normalized to body weight, compared to vehicle (hApoA-I transgenic mice; 10 mg/kg BID, day 15, male mice)
O=c1c(O)c(-c2ccc(O)c(O)c2)oc2cc(O)cc(O)c12 [3,5,7-trihydroxy-2-(3,4-dihydroxyphenyl)-4H-chromen-4-one, reference compound] |  |  |  | increased |  |  | 
O=c1cc(-c2ccc(O)cc2)oc2cccc(O)c12 [4′,5-dihydroxyflavone] |  |  |  | increased |  |  | 
O=C1CC(c2ccc(O)cc2)Oc2cc(O)cc(O)c21 (stereo not drawn) [5,7-Dihydroxy-2-(4-hydroxyphenyl)-chroman-4-one] |  |  |  | increased | increased |  | 
Nc1cc(O)ccc1-c1cc(=O)c2ccccc2o1 [Example 3, 2-(2-amino-4-hydroxy-phenyl)-chromen-4-one] | 7.42 ×10⁻⁶ cm/s |  |  | increased |  |  | 
O=c1cc(-c2ccc(O)cc2)oc2ccc(CO)cc12 [Example 11, 6-Hydroxymethyl-2-(4-hydroxyphenyl)chromen-4-one] |  | 246 to 247 °C |  | increased |  |  | 
O=c1cc(-c2ccc(CO)cc2)oc2ccc(O)cc12 [Example 14, 6-Hydroxy-2-(4-hydroxymethylphenyl)chromen-4-one] |  | 262 to 265 °C |  | increased |  |  | 
Oc1ccc(-c2cc3ccccc3cn2)cc1 [Example 54, 4-isoquinolin-3-yl-phenol] | 4.11 ×10⁻⁶ cm/s | 218 to 219 °C |  | increased | increased |  | 
COc1cc(OC)c2c(=O)[nH]c(-c3ccc(O)cc3)cc2c1 [Example 60, 3-(4-Hydroxyphenyl)-6,8-dimethoxyisoquinolin-1(2H)-one] |  | 245 to 247 °C | 58.2 µM (≈ 17.3 µg/mL) |  | increased |  | 
O=C(Oc1ccc(-c2cc(=O)c3ccccc3o2)cc1)c1cccnc1 [Example 71, 4-(4-oxo-4H-chromen-2-yl)phenyl nicotinate] |  |  |  | increased | increased | 12.82% | minor changes
O=C(Oc1ccc(C2CC(=O)c3c(OC(=O)c4cccnc4)cc(OC(=O)c4cccnc4)cc3O2)cc1)c1cccnc1 (stereo not drawn) [Example 73, 2-(4-(Nicotinoyloxy)phenyl)-4-oxochroman-5,7-diyl dinicotinate] |  |  |  | no increase |  |  | 
O=C(Oc1ccc(-c2cc(=O)c3c(OC(=O)c4cccnc4)cc(OC(=O)c4cccnc4)cc3o2)cc1)c1cccnc1 [Example 74, 2-(4-Nicotinoyloxy)phenyl)-oxo-4H-chromene-5,7-diyl dinicotinate] |  |  |  | increased | increased |  | 
CNc1nc(-c2ccc(O)cc2)cc2cc(OC)cc(OC)c12.Cl [Example 82, 4-(6,8-dimethoxy-1-(methylamino)isoquinolin-3-yl)phenol hydrochloride] |  | 250 to 253 °C | 66.8 µM |  | increased |  | 
